Data published in patent US20260083848A1, “COMBINATION OF CAR T-CELL THERAPY WITH BTK INHIBITORS AND METHODS OF USE THEREOF” (priority 2021, published 2026).
“Also recorded” adds a separate entry of the source.

How the values were obtained:
CART19 cells [1] = assay: CART19 proliferation in co-culture with irradiated JeKo-1 cells (absolute CD3+ T cell counts by flow cytometry); type: cell-based, human; settings: for toxicity to CART19 cells: in vitro, concentrations up to 10 μM
Method: CART19 proliferation in the presence of vecabrutinib was evaluated. CART19 cells were cocultured with irradiated JeKo-1 tumor cells at a 1:1 ratio for 24 hours in the presence of 1 μM or 10 μM vecabrutinib. Control co-culture was treated with DMSO vehicle only. Absolute CD3+ T cell counts were measured by flow cytometry.
CART19 cells were cocultured with irradiated JeKo-1 tumor cells at a 1:1 ratio for 24 hours in the presence of 1 μM or 10 μM. Control co-culture was treated with DMSO only. Absolute CD3+ T cell counts were measured by flow cytometry.

[2] = test system: CD19-expressing JeKo-1 tumor cells; assay: CART19-mediated killing of JeKo-1 tumor cells in in vitro co-culture (bioluminescence); type: cell-based, human
Method: CART19 cells and JeKo-1 tumor cells were cultured at a 1:1 ratio for 24 hours in the presence of 1 μM or 10 μM vecabrutinib. […] Control of untransduced (UTD) T cell/JeKo-1 co-culture in the presence of 1 μM or 10 μM vecabrutinib was used to determine any tumor cell killing induced by vecabrutinib in the absence of CART19 cells. The percentage of tumor cell killing was measured using bioluminescence imaging, with samples treated with D-luciferin prior to imaging. […] Control co-culture was treated with DMSO only. The percentage of tumor cell killing was measured as described above.

CART19 cells [3] = assay: CART19 cell degranulation (CD107α by flow cytometry) in co-culture with irradiated JeKo-1 cells; type: cell-based, human; settings: 1 μM or 10 μM, 1:1 ratio, 4 hours; FIG. 3A
Method: CART19 cells were cocultured with irradiated JeKo-1 tumor cells at a 1:1 ratio for 4 hours in the presence of 1 μM or 10 μM vecabrutinib. […] Untransduced T cell/JeKo-1 co-culture treated with 1 μM or 10 μM vecabrutinib were used as a negative control as the non-antigen-specific T cells were not expected to undergo degranulation in the presence of JeKo-1 target cells. CD107α was used as a marker to quantify degranulation, as this marker becomes part of the cellular membrane and accessible to surface staining with CD107α-specific antibody in degranulating cells. Following coculture, cells were fixed, permeabilized, attained and analyzed for CD107 levels by flow cytometry.

CART19 cells [4] = assay: CART19 cell cytokine production in co-culture with JeKo-1 cells (38-multiplex of supernatants); type: cell-based, human; settings: 1 μM or 10 μM, 1:1 ratio
Method: The effect of vecabrutinib treatment on CART19 cell cytokine production was also evaluated. CART19 cells were cocultured with irradiated JeKo-1 tumor cells at a 1:1 ratio for 3 days in the presence of 1 μM or 10 μM vecabrutinib. […] Untransduced T cell/JeKo-1 coculture treated with 1 μM or 10 μM vecabrutinib were used as a negative control as the non-antigen-specific T cells were not expected to undergo activation and cytokine production in the presence of JeKo-1 target cells. Supernatants were harvested and the levels of multiple cytokines and chemokines were analyzed with 38-multiplex (Millipore).

[5] = test system: JeKo-1 lymphoma xenograft; assay: JeKo-1 lymphoma xenograft mouse model with CART19 cells; settings: 50 mg/kg oral gavage twice daily for 4 weeks, in combination with CART19
Method: The impact of vecabrutinib on CART19 cell anti-tumor effects was evaluated using a JeKo-1 lymphoma xenograft mouse model. To establish the mouse model, NSG mice were inoculated with 1×10^6 luciferase^+ JeKo-1 tumor cells by intravenous injection at day −14. […] Treatment groups received either CART cells with DMSO vehicle or CART cells in combination with 50 mg/kg vecabrutinib. The control group received untransduced T cells with DMSO vehicle. Administration of vecabrutinib or vehicle commenced one day prior to CART19 administration (i.e., day −1), and was given by oral gavage. Untransduced or CART19 were infused by intravenous administration on day 0 at a dose of 1×10^6 cells per animal. Vecabrutinib and vehicle were administered by oral gavage twice daily over a period of 4 weeks. Mice were imaged weekly by IVIS to assess tumor burden. Blood samples were collected from the mice on a weekly basis and the level of circulating CART19 cells was measured by flow cytometry. Mouse weight was also measured on a weekly basis as a measure of treatment toxicity.

[6] = test system: pro-inflammatory cytokines in serum; assay: Phase 1 clinical trial, serum cytokine panel in patients with B cell malignancies; type: in vivo, human; settings: oral 20.5-410 mg twice daily, 4 weeks post-treatment vs pretreatment
Method: Human cancer patients having B cell malignancies were administered vecabrutinib in a Phase 1 clinical trial and a cytokine panel was used to evaluate cytokine levels in serum at 4 weeks following administration. Briefly, patients in the clinical trial had Chronic Lymphocytic Leukemia (CLL)/Small Lymphocytic Lymphoma (SLL) or Non Hodgkin's lymphoma (NHL) and had failed prior standard of care therapies. NHL indications included lymphoplasmacytoid lymphoma/Waldenstrom's macroglobulinemia (LPL/WM), mantle cell lymphoma (MCL), marginal zone lymphoma (MZL), diffuse large B-cell lymphoma of the activated B-cell subtype (DLBCL-ABC), and follicular lymphoma (FL). A group of 39 patients were orally administered a dose of 20.5 mg, 41 mg, 82 mg, 164 mg, 246 mg, 328 mg, or 410 mg of vecabrutinib as a capsule twice daily. Serum samples were collected from the patients prior to the start of treatment as 4-weeks post-treatment and analyzed by 38-multiplex (Millipore).

wild-type BTK = wild-type BTK (Homo sapiens, UniProt Q06187); settings: Aslan, et al (2021); cited from earlier work
mutant BTK = settings: Aslan, et al (2021); cited from earlier work
[7] = test system: CLL patients expressing BTK^C481S; settings: Allan, et al (2019); cited from earlier work

wild-type BTK, sequence (Q06187 whole entry): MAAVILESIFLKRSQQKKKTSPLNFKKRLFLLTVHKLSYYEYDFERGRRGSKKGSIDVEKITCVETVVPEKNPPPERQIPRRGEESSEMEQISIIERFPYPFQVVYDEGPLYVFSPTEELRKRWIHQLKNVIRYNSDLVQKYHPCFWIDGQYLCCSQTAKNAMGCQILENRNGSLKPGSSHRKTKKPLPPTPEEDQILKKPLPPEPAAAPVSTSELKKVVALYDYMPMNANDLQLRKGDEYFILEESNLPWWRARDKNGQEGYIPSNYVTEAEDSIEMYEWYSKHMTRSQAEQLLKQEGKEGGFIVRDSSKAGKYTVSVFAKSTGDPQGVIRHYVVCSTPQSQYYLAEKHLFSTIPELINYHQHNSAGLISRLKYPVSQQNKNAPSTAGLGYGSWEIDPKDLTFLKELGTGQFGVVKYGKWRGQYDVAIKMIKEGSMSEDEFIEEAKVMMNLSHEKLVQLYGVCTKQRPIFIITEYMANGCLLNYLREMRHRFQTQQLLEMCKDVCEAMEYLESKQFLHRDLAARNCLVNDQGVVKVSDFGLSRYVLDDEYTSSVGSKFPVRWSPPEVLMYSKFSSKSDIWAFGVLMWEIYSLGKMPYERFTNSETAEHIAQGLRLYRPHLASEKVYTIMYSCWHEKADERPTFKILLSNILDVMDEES

C=CC(=O)N1CCC[C@@H](n2nc(-c3ccc(Oc4ccccc4)cc3)c3c(N)ncnc32)C1 [ibrutinib, reference compound]
toxicity to CART19 cells (CART19 cells [1]): toxic; also recorded: dose-dependent toxicity

NC(=O)[C@H]1CCN(c2ncnc(N)c2F)C[C@@H]1N1CCC[C@@H](Nc2cc(Cl)cc(C(F)(F)F)c2)C1=O [vecabrutinib, (3R,3′R,4′S)-1′-(6-amino-5-fluoropyrimidin-4-yl)-3-((3-chloro-5-(trifluoromethyl)phenyl)amino)-2-oxo-[1,3′-bipiperidine]-4′-carboxamide]
CART19-mediated killing of Jeko-1 lymphoma cells as compared to ibrutinib ([2]; 0.625.1 CART19 to tumor cell ratio, 24 hours, normalized to BTK inhibitor only, FIG. 1B): significantly potentiated | killing of CD19-expressing JeKo-1 tumor cells ([2]; CART19:JeKo-1 1:1, 24 hours, 1 μM or 10 μM, vs DMSO control, FIG. 1A): significantly increased | CART proliferation compared to the DMSO control (CART19 cells [1]; 1 μM or 10 μM, 1:1 ratio, 24 hours, FIG. 2A): comparable | CART19 proliferation compared to control (CART19 cells [1]; 10 μM, 1:1 ratio, 24 hours, FIG. 2A/2B): increased | toxicity to CART19 cells (CART19 cells [1]): well-tolerated; also recorded: not toxic | CART19 degranulation (CD107α) (CART19 cells [3]): did not impair | IL-6 in supernatant (CART19 cells [4]; FIG. 3B): downregulation | IL-10 in supernatant (CART19 cells [4]; FIG. 3C): downregulation | MIP-1β in supernatant (CART19 cells [4]; FIG. 3D): downregulation | antitumor activity (tumor burden by IVIS) compared to CART19 alone ([5]; FIG. 4A): sustained antitumor activity | CART19 proliferation (circulating CART19 cells by flow cytometry) ([5]; FIG. 4B): increased | serum level of IP-10 ([6]; FIG. 6A): significantly decreased | serum level of MIP-1β ([6]; FIG. 6B): significantly decreased | serum level of TNFα ([6]; FIG. 6C): significantly decreased | inhibitory activity against wild-type BTK (wild-type BTK): maintain inhibitory activity | inhibitory activity against mutant BTK (mutant BTK): maintain inhibitory activity | efficacy in CLL patients expressing BTK^C481S [7]: has efficacy
